This passage reports IC50 results from US11279687B2, “Compounds and compositions for the inhibition of NAMPT” (Valo Health, Inc., priority 2010, dated 2022).

One test has as its target NAMPT (Homo sapiens (Human), UniProt P43490). The experiment in a line: NAMPT biochemical inhibition assay (NMN quantified by mass spectrometry). The settings on record: NAMPT biochemical inhibition; read-out: Biochem IC50.
In a further test the test system is A2780 cells. The experiment in a line: In-vitro cell proliferation assay (SRB), A2780 cells.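 Also: viable cell number read as SRB absorbance, background from media-only wells subtracted, IC50 interpolated from percent inhibition at two bracketing compound concentrations.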 In kind it is cell-based. The note with it: A2780 cells, 72 hours, SRB, read-out: A2780 IC50.

Like-named read-outs stand apart in the source and are kept apart here. Where only a bound is given, the exact number is not on record here.

NAMPT, sequence (P43490 whole entry): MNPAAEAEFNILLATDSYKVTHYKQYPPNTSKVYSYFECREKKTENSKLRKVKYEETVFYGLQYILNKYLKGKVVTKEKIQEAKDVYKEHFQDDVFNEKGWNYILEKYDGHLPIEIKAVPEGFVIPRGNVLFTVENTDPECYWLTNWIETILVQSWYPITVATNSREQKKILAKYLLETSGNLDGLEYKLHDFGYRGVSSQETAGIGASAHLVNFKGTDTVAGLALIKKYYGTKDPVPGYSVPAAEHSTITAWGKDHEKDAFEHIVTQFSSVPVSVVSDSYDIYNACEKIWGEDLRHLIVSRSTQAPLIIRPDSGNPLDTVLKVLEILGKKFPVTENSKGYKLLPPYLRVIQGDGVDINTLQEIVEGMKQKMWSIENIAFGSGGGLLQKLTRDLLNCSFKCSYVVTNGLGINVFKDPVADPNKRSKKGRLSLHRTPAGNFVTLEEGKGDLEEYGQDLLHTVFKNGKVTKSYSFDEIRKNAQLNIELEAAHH

For `CN(C)C(=O)c1ccccc1NS(=O)(=O)c1ccc(NC(=O)NCc2cccnc2)cc1` [N,N-dimethyl-2-[(4-{[(pyridin-3-ylmethyl)carbamoyl]amino}benzene)sulfonamido]benzamide], the IC50 stood at 16 nM on NAMPT and 55 nM in the test on A2780 cells (Homo sapiens, A2780, 72 h).

For `COc1ccc(S(=O)(=O)c2ccc(NC(=O)NCc3cccnc3)cc2)cc1` [3-{4-[(4-methoxybenzene)sulfonyl]phenyl}-1-(pyridin-3-ylmethyl)urea], the IC50 on NAMPT was 2.4 nM; with A2780 cells (Homo sapiens, A2780, 72 h), 100 to 1000 nM.

On to `O=C(NCc1cccnc1)Nc1ccc(S(=O)(=O)c2ccc(F)c(C(F)(F)F)c2)cc1` [3-(4-{[4-fluoro-3-(trifluoromethyl)benzene]sulfonyl[phenyl)-1-(pyridin-3-ylmethyl)urea], for which the IC50 is 1.5 nM at NAMPT and 86.2 nM in the test with A2780 cells.

`CC(C)COc1cc(F)cc(S(=O)(=O)c2ccc(NC(=O)NCc3cccnc3)cc2)c1` [3-(4-{[3-fluoro-5-(2-methylpropoxy)benzene]sulfonyl}phenyl)-1-(pyridin-3-ylmethyl)urea]: the IC50 on NAMPT amounted to 4 nM; in the test on A2780 cells (Homo sapiens, A2780, 72 h) it was 56.4 nM.

Consider `O=C(NCc1cccnc1)Nc1ccc(S(=O)(=O)c2ccncc2)cc1` [3-(pyridin-3-ylmethyl)-1-[4-(pyridine-4-sulfonyl)phenyl]urea], for which the IC50 was found to be 11 nM at NAMPT and 488 nM in the test with A2780 cells (Homo sapiens, A2780, 72 h).

As for `O=C(NCc1cccnc1)Nc1ccc(S(=O)(=O)N2CCC3(CCCC3)CC2)cc1` [1-(4-{8-azaspiro[4.5]decane-8-sulfonyl}phenyl)-3-(pyridin-3-ylmethyl)urea], the IC50 on NAMPT came to 4 nM; in the test on A2780 cells (Homo sapiens, A2780, 72 h), 343 nM.

For `CCOc1ccc(S(=O)(=O)c2ccc(NC(=O)NCc3cccnc3)cc2)cc1` [3-{4-[(4-ethoxybenzene)sulfonyl]phenyl}-1-(pyridin-3-ylmethyl)urea], the IC50 at NAMPT was 2.2 nM; with A2780 cells (Homo sapiens, A2780, 72 h), 100 to 1000 nM.

With `O=C(NCc1cccnc1)Nc1ccc(S(=O)(=O)c2cnc3ccccc3c2)cc1` [3-(pyridin-3-ylmethyl)-1-[4-(quinoline-3-sulfonyl)phenyl]urea], the IC50 on NAMPT came to 2.8 nM; in the test with A2780 cells (Homo sapiens, A2780, 72 h) it was 28 nM.

Regarding `COc1ccc(S(=O)(=O)c2ccc(NC(=O)NCc3cccnc3)cc2)c(C)c1` [3-{4-[(4-methoxy-2-methylbenzene)sulfonyl]phenyl}-1-(pyridin-3-ylmethyl)urea], the IC50 on NAMPT is 8 nM; in the test with A2780 cells (Homo sapiens, A2780, 72 h), 352 nM.

Regarding `COc1cc(S(=O)(=O)c2ccc(NC(=O)NCc3cccnc3)cc2)ccc1Cl` [3-{4-[(4-chloro-3-methoxybenzene)sulfonyl]phenyl}-1-(pyridin-3-ylmethyl)urea], the IC50 on NAMPT stood at 4.4 nM; with A2780 cells (Homo sapiens, A2780, 72 h), 63.2 nM.

With `Cc1ccc(S(=O)(=O)c2ccc(NC(=O)NCc3cccnc3)cc2)cc1` [3-{4-[(4-methylbenzene)sulfonyl]phenyl}-1-(pyridin-3-ylmethyl)urea], the IC50 at NAMPT was 4.33 nM; with A2780 cells (Homo sapiens, A2780, 72 h), 141 nM.

With `O=C(NCc1cccnc1)Nc1ccc(S(=O)(=O)N2CCc3ncccc3C2)cc1` [3-(pyridin-3-ylmethyl)-1-[4-(5,6,7,8-tetrahydro-1,6-naphthyridine-6-sulfonyl)phenyl]urea], the IC50 at NAMPT was 16 nM; in the test on A2780 cells (Homo sapiens, A2780, 72 h), 111 nM.

Regarding `O=C(NCc1cccnc1)Nc1ccc(S(=O)(=O)c2cncc(Cl)c2)cc1` [3-[4-(5-chloropyridine-3-sulfonyl)phenyl]-1-(pyridin-3-ylmethyl)urea], the IC50 on NAMPT is 2.6 nM; in the test on A2780 cells (Homo sapiens, A2780, 72 h), 98.2 nM.

Regarding `CC(C)CNC(=O)c1cccc(S(=O)(=O)c2ccc(NC(=O)NCc3cccnc3)cc2)c1` [N-(2-methylpropyl)-3-[(4-{[(pyridin-3-ylmethyl)carbamoyl]amino[benzene)sulfonyl]benzamide], the IC50 was 9.7 nM at NAMPT and 100 to 1000 nM in the test with A2780 cells.

As to `CCN(CC)C1CCN(S(=O)(=O)c2ccc(NC(=O)NCc3cccnc3)cc2)CC1` [3-{4-[4-(diethylamino)piperidine-1-sulfonyl]phenyl}-1-(pyridin-3-ylmethyl)urea], the IC50 on NAMPT came to 5 nM; with A2780 cells (Homo sapiens, A2780, 72 h), 14 nM.

In the case of `COc1ccc(NS(=O)(=O)c2ccc(NC(=O)NCc3cccnc3)cc2)cc1OC` [3-{4-[(3,4-dimethoxyphenyl)sulfamoyl]phenyl]-1-(pyridin-3-ylmethyl)urea], the IC50 amounted to 5 nM at NAMPT and 116 nM with A2780 cells (Homo sapiens, A2780, 72 h).

In the case of `CNC(=O)c1ccc(S(=O)(=O)c2ccc(NC(=O)NCc3cccnc3)cc2)cn1` [N-methyl-5-[(4-{[(pyridin-3-ylmethyl)carbamoyl]amino}benzene)sulfonyl]pyridine-2-carboxamide], the IC50 came out at 3.8 nM at NAMPT and 83.8 nM with A2780 cells (Homo sapiens, A2780, 72 h).

For the compound `O=C(NCc1cccnc1)Nc1ccc(S(=O)(=O)c2cccnc2N2CCOCC2)cc1` [1-{4-[2-(morpholin-4-yl)pyridine-3-sulfonyl]phenyl}-3-(pyridin-3-ylmethyl)urea], the IC50 at NAMPT was 16 nM; in the test with A2780 cells (Homo sapiens, A2780, 72 h), 100 to 1000 nM.

For the compound `COc1ccc(Cl)cc1S(=O)(=O)c1ccc(NC(=O)NCc2cccnc2)cc1` [3-{4-[(5-chloro-2-methoxybenzene)sulfonyl]phenyl}-1-(pyridin-3-ylmethyl)urea], the IC50 on NAMPT came to 5 nM; in the test on A2780 cells (Homo sapiens, A2780, 72 h), 21 nM.

In the case of `O=C(NCc1ccc2nccn2c1)c1ccc(S(=O)(=O)c2cccc(C(F)(F)F)c2)cc1` [N-{imidazo[1,2-a]pyridin-6-ylmethyl}-4-{[3-(trifluoromethyl)benzene]sulfonyl}benzamide], the 50% inhibitory concentration (IC50) on NAMPT turned out to be 7.03 nM; in the test with A2780 cells (Homo sapiens, A2780, 72 h) it was 4.33 nM.

Regarding `COc1cc(Cl)cc(S(=O)(=O)c2ccc(NC(=O)NCc3cccnc3)cc2)c1` [3-{4-[(3-chloro-5-methoxybenzene)sulfonyl]phenyl}-1-(pyridin-3-ylmethyl)urea], the IC50 turned out to be 1.3 nM on NAMPT and 27.2 nM in the test with A2780 cells (Homo sapiens, A2780, 72 h).

On to `COc1ccc(Cl)cc1N1CCN(S(=O)(=O)c2ccc(NC(=O)NCc3cccnc3)cc2)CC1` [3-{4-[4-(5-chloro-2-methoxyphenyl)piperazine-1-sulfonyl]phenyl}-1-(pyridin-3-ylmethyl)urea], for which the IC50 on NAMPT came to 2 nM; in the test with A2780 cells (Homo sapiens, A2780, 72 h) it was 50 nM.

Regarding `Nc1ccc(CNC(=O)Nc2ccc(S(=O)(=O)c3ccc(F)cc3)cc2)cn1` [1-[(6-aminopyridin-3-yl)methyl]-3-{4-[(4-fluorobenzene)sulfonyl]phenyl}urea], the IC50 on NAMPT was 2 nM; in the test with A2780 cells (Homo sapiens, A2780, 72 h), 43 nM.

In the case of `O=C(NCc1cccnc1)Nc1ccc(S(=O)(=O)Nc2ccc(Cl)c3ccccc23)cc1` [3-{4-[(4-chloronaphthalen-1-yl)sulfamoyl]phenyl}-1-(pyridin-3-ylmethyl)urea], the IC50 is 5 nM at NAMPT and 53 nM with A2780 cells (Homo sapiens, A2780, 72 h).

Consider `O=C(NCc1ccc(F)c(F)c1)Nc1ccc(S(=O)(=O)N2CCCCC2)cc1` [1-[(3,4-difluorophenyl)methyl]-3-[4-(piperidine-1-sulfonyl)phenyl]urea], for which the IC50 was 92 nM on NAMPT and 29000 nM in the test on A2780 cells (Homo sapiens, A2780, 72 h).

On to `Cc1cccc(N2CCN(S(=O)(=O)c3ccc(NC(=O)NCc4cccnc4)cc3)C[C@@H]2C)c1` [3-{4-[(3S)-3-methyl-4-(3-methylphenyl)piperazine-1-sulfonyl]phenyl}-1-(pyridin-3-ylmethyl)urea], for which the IC50 on NAMPT is 3 nM; in the test on A2780 cells (Homo sapiens, A2780, 72 h) it was 34 nM.

On to `O=C(NCc1cccnc1)Nc1ccc(S(=O)(=O)NCc2ccccn2)cc1` [1-{4-[(pyridin-2-ylmethyl)sulfamoyl]phenyl}-3-(pyridin-3-ylmethyl)urea], for which the IC50 was 8.4 nM at NAMPT and 1000 to 10000 nM in the test on A2780 cells (Homo sapiens, A2780, 72 h).

With `Cc1noc(C)c1S(=O)(=O)c1ccc(NC(=O)NCc2cccnc2)cc1` [3-[4-(3,5-dimethyl-1,2-oxazole-4-sulfonyl)phenyl]-1-(pyridin-3-ylmethyl)urea], the IC50 at NAMPT came out at 20 nM; with A2780 cells (Homo sapiens, A2780, 72 h) it was 850 nM.

With `CC1CC(C)CN(S(=O)(=O)c2ccc(NC(=O)NCc3cccnc3)cc2)C1` (stereo not drawn) [1-[4-(3,5-dimethylpiperidine-1-sulfonyl)phenyl]-3-(pyridin-3-ylmethyl)urea], the IC50 stood at 6 nM at NAMPT and 14 nM with A2780 cells (Homo sapiens, A2780, 72 h).

For `CC(NC(=O)Nc1ccc(S(=O)(=O)N2CCCCC2)cc1)c1cccnc1` (stereo not drawn) [3-[4-(piperidine-1-sulfonyl)phenyl]-1-[1-(pyridin-3-yl)ethyl]urea], the IC50 on NAMPT was 22100 nM; in the test on A2780 cells (Homo sapiens, A2780, 72 h), greater than 30000 nM.

Turning to `NC(=O)c1cccc(S(=O)(=O)c2ccc(NC(=O)NCc3cccnc3)cc2)c1` [3-[(4-{[(pyridin-3-ylmethyl)carbamoyl]amino[benzene)sulfonyl]benzamide], the IC50 was 8 nM at NAMPT and 1000 to 10000 nM with A2780 cells (Homo sapiens, A2780, 72 h).

`O=C(NCc1cccnc1)Nc1ccc(S(=O)(=O)c2cccc3[nH]ccc23)cc1` [1-[4-(1H-indole-4-sulfonyl)phenyl]-3-(pyridin-3-ylmethyl)urea]: the IC50 on NAMPT was determined as 1.6 nM; in the test with A2780 cells (Homo sapiens, A2780, 72 h) it was 13.4 nM.

`O=C(NCc1cccnc1)Nc1ccc(S(=O)(=O)c2ccc(OCC(F)(F)F)c(F)c2)cc1` [3-(4-{[3-fluoro-4-(2,2,2-trifluoroethoxy)benzene]sulfonyl}phenyl)-1-(pyridin-3-ylmethyl)urea]: the IC50 on NAMPT is 2.2 nM; with A2780 cells (Homo sapiens, A2780, 72 h), 100 to 1000 nM.

For `Cc1ccc(NS(=O)(=O)c2ccc(NC(=O)NCc3cccnc3)cc2)cc1Cl` [3-{4-[(3-chloro-4-methylphenyl)sulfamoyl]phenyl}-1-(pyridin-3-ylmethyl)urea], the IC50 was found to be 1.4 nM on NAMPT and 26 nM in the test with A2780 cells (Homo sapiens, A2780, 72 h).

As for `COc1ccccc1N1CCN(S(=O)(=O)c2ccc(NC(=O)NCc3cccnc3)cc2)CC1` [3-{4-[4-(2-methoxyphenyl)piperazine-1-sulfonyl]phenyl}-1-(pyridin-3-ylmethyl)urea], the IC50 is 7 nM on NAMPT and 35 nM in the test on A2780 cells (Homo sapiens, A2780, 72 h).

On to `CC(C)NC(=O)c1cc(S(=O)(=O)c2ccc(NC(=O)NCc3cccnc3)cc2)ccc1F` [2-fluoro-N-(propan-2-yl)-5-[(4-{[(pyridin-3-ylmethyl)carbamoyl]amino}benzene)sulfonyl]benzamide], for which the IC50 on NAMPT was 20.9 nM; in the test with A2780 cells (Homo sapiens, A2780, 72 h) it was 100 to 1000 nM.
